Experimental data reported in patent publication US11567085B2, “Photo-cleavable surfactants” (Wisconsin Alumni Research Foundation, priority 2018, dated 2023).

Columns and labels:
[1] = assay type: physicochemical
Experimental: Several degradation conditions were compared (i.e., organic vs. aqueous solutions in the presence or absence of acid and reducing agents) to determine the most favorable conditions (FIG. 11).
UV-Vis degradation. […] The samples were diluted to a final volume of 1 mL in H2O. A UV-Vis spectrum was taken from each sample with a Varian Cary 50 UV-Visible spectrophotometer (background correction, medium scan rate, 600-200 nm).

[2] = tested on: cardiac tissue proteins; assay: Surfactant-aided protein extraction from insoluble cardiac tissue pellet, SDS-PAGE and protein assay; conditions: 0.5% surfactant in 25 mM NH4HCO3; SDS-PAGE and Bradford protein assay (FIG. 16)
Experimental: Data presented were based on three independent experiments (n=3). Error bars represent standard error of the mean.
Protein extraction from cardiac tissue. The frozen tissue samples (˜500 mg) were cut into small pieces and washed with PBS buffer containing protease inhibitors and reducing agent (5 mM DTT, 1 mM PMSF, 1× protease inhibitor cocktail). […] The homogenate was centrifuged at 211,750×g using Beckman Ultracentrifuge and a Ti-80 rotor for 1 h. The supernatant after the first HEPES extraction was removed and saved as “E1” extraction. The HEPES extraction was repeated on the resulting pellet and saved as “E2”. After the second HEPES extraction, the tissue pellet was suspended in 25 mM NH4HCO3 and evenly divided into smaller aliquots. In one aliquot, 25 mM NH4HCO3 buffer with no surfactant (NS) was used in a 1:1 ratio (homogenate:buffer) and labeled as “E3”. In the other aliquots, surfactants (1% in 25 mM NH4HCO3) were individually added to the other aliquots in a 1:1 ratio (homogenate:surfactant) and labeled as “E3” following incubation and centrifugation.

degradation time upon UV irradiation [1]	Compound	protein solubilization ability [2]
30 to 150 s	4-hexylphenylazosulfonate	
	CCCCCCCCCCC(OC(=O)NCCCS(=O)(=O)[O-])c1ccco1.[Na+] (stereo not drawn) [PM]	drastically better protein solubilization ability
	CCCCCCCCCCCC1(C)OCC(COCCCS(=O)(=O)[O-])O1.[Na+] (stereo not drawn) [RG]	drastically better protein solubilization ability
